The source of these data is patent publication US20230312473A1, “PROCESS FOR THE PREPARATION OF BIHETEROARYL COMPOUNDS AND CRYSTAL FORMS THEREOF” (Genentech, Inc., priority 2020, published 2023).

Data set [1] is described as follows: Solubility of compound (1) in solvents at 0° C. and the respective maximum process temperature. The class given is physicochemical. As to conditions: for Solubility at max temp / Solubility at 0° C.: Form A. An excerpt:
Prior art processes for preparing compound (1) used isopropyl acetate for final crystallization, having a yield of 84% at a relatively low concentration of 3.0%-w/w. […] It was known from previous qualitative experimental data as well as solubility prediction (numerical simulation) that the possible list is reduced since the solubility of GDC-0134 in alcohols is too low. From a process design perspective, a simple cooling crystallization is preferred over other designs like antisolvent or evaporative crystallization especially because of easier process control. […] Mainly esters but also acetonitrile, methyl isobutyl ketone (MIBK), and 2-MeTHF were on the shortlist for precise solubility determination. The solubility of compound (1) in these solvents is Table 5 for 0° C. and the respective maximum process temperatures. […] While the solubility in acetonitrile is very low even for high temperatures, mixtures of 2-MeTHF and acetonitrile show a synergistic effect at least for a 1:1 mixture. The solubility at 70° C. is the highest among the investigated systems, and the theoretical yield is close to 90%. Due to concerns with regard to the efficient removal of acetonitrile to acceptable levels after drying, 2-MeTHF/acetonitrile-mixtures were not further investigated, though. MIBK offered the highest theoretical yield plus a significant increase in concentration compared to iPrOAc and it was selected for a more detailed investigation

Data set [2] is described as follows: Mechanical stress evaluation: crystallinity by XRPD. The class given is physicochemical. Here is the method: Compound 1, produced generally according to the method of Example 5, was evaluated for changes induced mechanical stress conditions, where crystallinity was evaluated by XRPD and where thermoanalytic characteristics were measured by differential scanning calorimetry (“DSC”), thermogravimetric analysis (“TGA”) and dynamic vapor sorption (“DVS”).
In a first evaluation, compound 1 was micronized by jet milling and evaluated by XRPD and DSC.
About 500 mg of compound 1 was dry grinded for about 5 minutes at ambient conditions with a mortar and pestle in order to simulate shear stresses encountered during a dry granulation. […] Furthermore, thermoanalytic data as measured by DSC, TGA, and DVS was only marginally different from compound 1 starting material (see Table 12 below).
The effect of pressure on compound 1 was performed to investigate whether phase transformation could occur during tableting. The conditions were 1.8 T/5 mm compact, 900 MPa, about 30 mg of compound 1, and a dwell time of about 6 seconds). The tablets were analyzed without further treatment and after gentle crushing of the tablets with a pestle. […] FIG. 2 pattern (b) is the XRPD pattern for crushed tablets. FIG. 2 pattern (c) is the XRPD pattern for tablets that were not crushed.
To simulate wet milling, wet manual grinding experiments were done. About 500 mg of compound 1 and about 0.5 mL water were kneaded for about 5 minutes with a mortar and pestle. About 100 mg of the wet material was analyzed by XRPD. The remainder of the material was dried overnight in an oven at 50° C. and ambient pressure. The dried material was analyzed by […], DSC, TGA, and DVS.

With `Nc1ncc(-c2cc(N3C[C@@H]4C[C@H]3CO4)nc(N3CCC(F)(F)C3)n2)cc1OC(F)F` [Compound 1, 5-(6-((1S,4S)-2-oxa-5-azabicyclo[2.2.1]heptan-5-yl)-2-(3,3-difluoropyrrolidin-1-yl)pyrimidin-4-yl)-3-(difluoromethoxy)pyridin-2-amine], the solubility in alcohols result in data set [1] (previous qualitative experimental data and solubility prediction) is on record as “too low”. For the same compound, the “Solubility at max temp” value in data set [1] (solvent: 2-MeTHF:MeCN (1:1), 70 ° C.) is 7.3 w/w %; in data set [1] (solvent: 2-MeTHF:MeCN (3:1), 70 ° C.) it was 2.2 w/w %; in data set [1] (solvent: 2-MeTHF, 70 ° C.), 5.2 w/w %; in data set [1] (solvent: Acetonitrile, 70 ° C.) it was 1.4 w/w %; in data set [1] (solvent: Ethylacetate, 70 ° C.) it was 4.8 w/w %; in data set [1] (solvent: MIBK, 80 ° C.), 5.2 w/w %. For the same compound, the “Solubility at max temp” value amounted to 4.9 w/w % in data set [1] (solvent: Methylacetate, 50 ° C.); 4.2 w/w % in data set [1] (solvent: i-propyl acetate, 80 ° C.); 4.3 w/w % in data set [1] (solvent: n-propyl acetate, 80 ° C.). Moreover, the “Solubility at 0° C.” value in data set [1] (solvent: 2-MeTHF:MeCN (1:1)) was 0.8 w/w %; in data set [1] (solvent: 2-MeTHF:MeCN (3:1)) it was 1.7 w/w %; in data set [1] (solvent: 2-MeTHF), 1.6 w/w %; in data set [1] (solvent: Acetonitrile), 0.5 w/w %; in data set [1] (solvent: Ethylacetate), 0.9 w/w %; in data set [1] (solvent: MIBK) it was 0.4 w/w %. In addition, the “Solubility at 0° C.” value in data set [1] (solvent: Methylacetate) came out at 1.3 w/w %; in data set [1] (solvent: i-propyl acetate) it was 0.4 w/w %; in data set [1] (solvent: n-propyl acetate) it was 0.8 w/w %. Further, the “crystallinity by XRPD” value in data set [2] (after manual wet milling and after hot drying of wet milled material) is “No reduction in the crystallinity”; in data set [2] (dry grinded about 5 minutes with mortar and pestle (simulated dry granulation)), “No reduction of crystallinity”; in data set [2] (tableting, 900 MPa, dwell about 6 seconds, with and without crushing of the tablets) it was “some reduction of crystallinity”. Further, the influence on crystallinity entry in data set [2] (micronized by jet milling) is recorded as “no significant influence on crystallinity”.
